Here are results for seven compounds from PMC9228152, “New Amino Naphthoquinone Derivatives as Anti-Trypanosoma cruzi Agents Targeting Trypanothione Reductase” (Pharmaceutics, 2022).

Assay [1] deals with T. cruzi epimastigotes, NINOA strain. The assay can be described thus: Growth inhibition of T. cruzi epimastigotes, NINOA strain. The class given is cell-based. The conditions noted are these: Trypanosoma cruzi, 120 h, epimastigotes, NINOA strain; five days; means of three independent experiments; read-out: Epi NINOA IC50. Here is the method: (§1) Epimastigotes from T. cruzi strains NINOA and INC-5 were cultured in BHI (brain heart infusion broth, 89%) axenic medium, as reported in [26], at an initial concentration of 1 × 10^6 parasites/mL, at 28 °C, supplemented with 10% foetal bovine serum and 1% sodium penicillin-streptomycin. […] On the last day, the absorbance of the cultures was measured and related to the control. All measurements were carried out in triplicate. No toxic effect was attributable to DMSO. Since parasite growth is exponential, the data were analysed according to a first order equation, and the respective growth constant (k), corresponding to the slope, was calculated for controls and parasites treated with different drug concentrations. From these measurements, percentage growth inhibition (%GI) and half-maximal inhibitory concentration (IC50) values were calculated.

For another assay, the system named is J774 cells. On the set-up: method as in PMID 31709599. The conditions noted are these: cited from earlier work.
Assay [2] relates to NINOA strain of T. cruzi trypomastigotes. On the set-up: method as in PMID 31709599. Particulars: cited from earlier work.
The next assay concerns J774 murine macrophages. As to the kind of experiment: Cytotoxicity on J774 macrophages (MTT). The class given is cell-based. Particulars: J774 macrophages, MTT, 24 h, read-out: J774 IC50. Here is the method:
Cytotoxicity assays for the compounds selected for their trypanocidal activity were performed on J774 macrophage cells using the MTT method. For this purpose, 50,000 cells/well resuspended in RPMI medium and 2% foetal bovine serum were seeded in a 96-well plate and incubated for 24 h at 37 °C. […] After 24 h of incubation, the existing culture medium was replaced in the plate with fresh culture medium along with […] each of the compound dilutions (100 to 1.25 μM) and Bzn to a final volume of 100 µL per well. This plate was then incubated in 5% CO2 for 24 h at 37 °C. The controls used were cells with medium as a positive control and cells without culture medium as a negative control. After the 24 h incubation, the morphology of the macrophages was observed under a microscope and then the culture medium was removed again and the MTT solution (5 mg/mL) was added. After 1 h incubation at 37 °C, the absorbance at 570 nm was recorded on an Elisa Epoch reader. The following formula was used to calculate the % cytotoxicity: %cytotoxicity = (100 − (mean number of cells with treatment/cells without treatment) × 100).

The test system of assay [3] is T. cruzi trypomastigotes, INC-5 strain. As to the kind of experiment: microbe, parasite or virus in culture. The conditions noted are these: Trypanosoma cruzi; bloodstream trypomastigotes, INC-5 strain; 24 h at 4 °C; read-out: Trypo INC-5 LC50 (half-maximal lytic concentration). The class given is cell-based. On the procedure:
(§2) Those compounds with the lowest IC50 values in the epimastigote studies of each strain were evaluated in trypomastigotes. For this purpose, bloodstream trypomastigotes of INC-5 and NINOA strains were used for peritoneal injection into 6−8-week-old CD1 mice. The peak of parasitemia was achieved after 4–6 weeks, at which time parasitised blood samples were obtained by cardiac puncture using sodium heparin as an anticoagulant and diluted to a concentration of 1 × 10^6 trypomastigotes/mL. 10 µL of each of the dilutions of the study compounds and Bzn, with these being placed in a 96-well plate, and 90 µL of infected blood was added, providing a final volume of 100 µL per well. The microplates were incubated at 4 °C for 24 h, and concentrations of 20 µM, 10 µM, and 5 µM of each compound were considered in these experiments. Each evaluation was performed in triplicate. Wells with untreated blood trypomastigotes were used as a negative lysis control and Bzn as a positive control. Then, the degree of lysis of trypomastigotes was determined by their reduction in number using an optical microscope according to the Brener–Pizzi method. For this purpose, 5 μL of blood was placed between a slide and a 13 × 13 coverslip. Mobile trypomastigotes were counted in 15 microscope fields at 40× magnification. Quantification of the degree of lysis for each case was expressed as a percentage considering the number of viable trypomastigotes with respect to the negative control. The half-maximal lytic concentration (LC50) was determined by linear regression. The experiments were carried out in accordance with the recommendations and approval of the local Ethics and Research Committee (Approval number: ENCB/CEI/078/2020).

For assay [4], the system named is T. cruzi trypomastigotes, NINOA strain. The assay can be described thus: microbe, parasite or virus in culture. The format is cell-based. Particulars: Trypanosoma cruzi; bloodstream trypomastigotes, NINOA strain; 24 h at 4 °C; read-out: Trypo NINOA LC50 (half-maximal lytic concentration). Here is the method: as §2
Assay [5] relates to T. cruzi epimastigotes, INC-5 strain. As to the kind of experiment: Growth inhibition of T. cruzi epimastigotes, INC-5 strain. The format is cell-based, Trypanosoma cruzi. The conditions noted are these: epimastigotes, INC-5 strain, five days, means of three independent experiments, read-out: Epi INC-5 IC50. Here is the method:
as §1

The next assay concerns the target recombinant TcTR (Trypanosoma cruzi, UniProt P28593). The assay can be described thus: Trypanothione reductase inhibition assay (TS2-dependent NADPH oxidation). The format is biochemical. The conditions noted are these: for Ki: mixed-type inhibition, global nonlinear regression. On the procedure:
The inhibition of TcTR activity by 7j was evaluated by monitoring the trypanothione disulphide (TS2)-dependent NADPH oxidation by using the assay described before. The reaction mixture contained assay buffer (40 mM HEPES pH 7.4, 1 mM EDTA), recombinant TcTR (88-168 ng/mL), NADPH (the concentration depended on experiment), and different 7j concentrations when required, in a volume of 500 μL. The mixture was incubated at 37 °C for 3 min, and TS2 was added to start the reaction. The absorbance at 340 nm was recorded in real time for 10 min, and the activity was calculated from the slope of the curves as μmol of NADPH oxidised per min (e^340 = 6.22 mM^−1 cm^−1).

The test system of assay [6] is Y strain of T. cruzi epimastigote. Set-up: method as in doi:10.1039/C5RA10122K. The conditions noted are these: read-out: IC50 against Y strain of T. cruzi epimastigote; cited from earlier work.
The test system of assay [7] is epimastigotes of the Tulahuén strain. On the set-up: method as in PMID 25127463. The conditions noted are these: read-out: IC50 against epimastigotes of the Tulahuén strain; cited from earlier work.
For the next assay, the system named is T. cruzi trypomastigotes. On the set-up: method as in PMID 30670432. The conditions noted are these: cited from earlier work.
In assay [8] the test system is trypomastigote cultures (Y strain). On the set-up: method as in PMID 28215783. The conditions noted are these: cited from earlier work.
The mark [9] stands for this setting: alpha of the mixed-type inhibitor equation, replots of slope and 1/v axis intercept vs. 7j.

SMILES strings stand for the structures. Read-outs that look alike come from different tables or passages of the source.

Chain of recombinant TcTR (P28593 whole entry): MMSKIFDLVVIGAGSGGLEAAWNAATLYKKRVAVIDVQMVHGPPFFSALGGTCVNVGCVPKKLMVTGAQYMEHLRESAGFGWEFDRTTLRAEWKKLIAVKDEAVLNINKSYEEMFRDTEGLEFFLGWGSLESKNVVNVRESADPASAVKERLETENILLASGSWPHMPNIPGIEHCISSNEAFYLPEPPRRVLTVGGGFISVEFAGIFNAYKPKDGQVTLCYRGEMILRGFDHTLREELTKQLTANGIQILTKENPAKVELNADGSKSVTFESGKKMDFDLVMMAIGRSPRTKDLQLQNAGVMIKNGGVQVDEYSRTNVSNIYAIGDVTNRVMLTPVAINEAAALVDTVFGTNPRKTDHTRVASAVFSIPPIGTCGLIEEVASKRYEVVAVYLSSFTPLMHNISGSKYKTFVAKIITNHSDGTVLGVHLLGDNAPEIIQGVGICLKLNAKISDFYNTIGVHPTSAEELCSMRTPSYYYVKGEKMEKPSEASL

As for `O=C(Cn1ccnc1[N+](=O)[O-])NCc1ccccc1` [Bzn, benznidazole, reference compound], the IC50 in [1] is 8.21 ± 1.8 µM; in the assay on J774 cells it was 352 µM; in assay [2] it was 40.7 µM; in the assay with J774 murine macrophages (Mus musculus, J774, 24 h) it was 352 µM; in assay [5] (Trypanosoma cruzi, 120 h), 42.3 ± 5.8 µM. Also, the values for the LC50 in [3] and in [4] were 85.6 ± 4.23 µM and more than 100 µM, respectively.

As for `O=C1C(Cl)=C(N2CCC(NC(=O)c3cccc4ccccc34)CC2)C(=O)c2ccccc21` [Compound 7j, N-(1-(3-chloro-1,4-dioxo-1,4-dihydronaphthalen-2-yl)piperidin-4-yl)-1-naphthamide], at recombinant TcTR (setting [9]), the “α NADPH” value came to 1.12. The “α TS2” value on recombinant TcTR (setting [9]) worked out at 0.77. Besides, the Ki was 18 ± 3.5 µM at recombinant TcTR (NADPH varied, TS2 fixed 200 µM, read-out: Ki 7j vs. NADPH) and 28 ± 4.5 µM at recombinant TcTR (TS2 varied, NADPH fixed 160 µM, read-out: Ki 7j vs. TS2). For the same compound, the “Type of enzyme inhibition” value at recombinant TcTR (with respect to both substrates, TS2 and NADPH, Lineweaver-Burk plots) was “simple mixed-type inhibitor”. The 50% inhibitory concentration (IC50) in the assay on J774 murine macrophages is 33 µM; with J774 murine macrophages (Mus musculus, J774, 24 h), approximately 25 µM; in [5] (Trypanosoma cruzi, 120 h), less than 1 µM; in assay [5], 0.92 ± 0.01 µM. Moreover, the LC50 in [3] worked out at 59.7 ± 3.72 µM; in assay [4], 98.1 ± 8.9 µM.

For the compound `O=C1C=C(Oc2cccc([N+](=O)[O-])c2)C(=O)c2ccccc21` [II, 2-(3-nitrophenoxy)-1,4-naphthoquinone], in [6], the half-maximal inhibitory concentration (IC50) was 0.02 µM.

`Cc1ccc(OC2=C(Cl)C(=O)c3ccccc3C2=O)cc1[N+](=O)[O-]` [III]: the half-inhibitory concentration (IC50) in the assay with J774 cells is 117 µM; in [2], 9.38 µM.

In the case of `CCCCCCOc1ccc(NC2=CC(=O)c3ccccc3C2=O)cc1` [I], in assay [7], the IC50 was 1.72 µM.

Regarding `O=C(Nc1nc(-c2ccccc2)c[nH]1)N1CCN(c2ccc(C(F)(F)F)cc2[N+](=O)[O-])CC1` [VI], in the assay with T. cruzi trypomastigotes, the IC50 is 2.2 µM.

Take `Clc1ccc2nccc(NCCN3CCOCC3)c2c1` [V]: the IC50 in assay [8] is 67.7 µM.
